Results taken from ChEMBL document CHEMBL1123903, “Synthesis and antimalarial effects of 4-[(7-chloro-4-quinolinyl)amino]-2-[(diethylamino)methyl] -6-alkylphenols and their N omega-oxides” (1987).

Assays:
Assay type in all cases: functional
[1] = system: Mus musculus; test: Number of mice surviving at 60 days postinfection when administered as a single dose of 320 mg/kg (sc) 72-h post infection
[2] = system: Plasmodium berghei; test: Change in mean survival time of trophozoite-induced Plasmodium berghei infection after 160 mg/kg subcutaneous dose
[3] = system: Mus musculus; test: Number of mice surviving at 60 days postinfection when administered as a single dose of 40 mg/kg (sc) 72-h post infection (delta MST)
[4] = system: Plasmodium berghei; test: Change in mean survival time of trophozoite-induced Plasmodium berghei infection after 80 mg/kg subcutaneous dose
[5] = system: Mus musculus; test: Number of mice surviving at 60 days postinfection when administered as a single dose of 640 mg/kg (sc) 72-h post infection
[6] = system: Mus musculus; test: Antimalarial activity tested against trophozoite induced Plasmodium berghei in mice (Mus musculus) expressed as change in mean survival time after a single dose of 10 mg/kg (subcutaneously); conditions: route subcutaneous
[7] = system: Plasmodium berghei; test: Change in mean survival time of trophozoite-induced Plasmodium berghei infection after 40 mg/kg subcutaneous dose
[8] = system: Plasmodium berghei; test: Change in mean survival time of trophozoite-induced Plasmodium berghei infection after 20 mg/kg subcutaneous dose
[9] = system: Mus musculus; test: Number of mice surviving at 60 days postinfection when administered as a single dose of 160 mg/kg (sc) 72-h post infection (delta MST)
[10] = system: Mus musculus; test: Number of mice surviving at 60 days postinfection when administered as a single dose of 80 mg/kg (sc) 72-h post infection (delta MST)
[11] = system: Mus musculus; test: Number of mice surviving at 60 days postinfection when administered as a single dose of 160 mg/kg (sc) 72-h post infection
[12] = system: Mus musculus; test: Number of mice surviving at 60 days postinfection when administered as a single dose of 80 mg/kg (sc) 72-h post infection
[13] = system: Mus musculus; test: Number of deaths when administered as a single dose of 640 mg/kg (sc) 72-h postinfection in mice
[14] = system: Mus musculus; test: Number of deaths when administered as a single dose of 320 mg/kg (sc) 72-h postinfection in mice
[15] = system: Mus musculus; test: Number of mice surviving at 60 days postinfection when administered as a single dose of 320 mg/kg (sc) 72-h post infection (delta MST)
[16] = system: Mus musculus; test: Antimalarial activity tested against trophozoite induced Plasmodium berghei in mice (Mus musculus) expressed as change in mean survival time after a single dose of 320 mg/kg (subcutaneously); conditions: route subcutaneous
[17] = system: Mus musculus; test: Antimalarial activity tested against trophozoite induced Plasmodium berghei in mice (Mus musculus) expressed as change in mean survival time after a single dose of 640 mg/kg (subcutaneously); conditions: route subcutaneous
[18] = system: Mus musculus; test: Number of mice surviving at 60 days postinfection when administered as a single dose of 20 mg/kg (sc) 72-h post infection (delta MST)
[19] = system: Mus musculus; test: Number of mice surviving at 60 days postinfection when administered as a single dose of 640 mg/kg (sc) 72-h post infection (delta MST)
[20] = Antimalarial activity tested against trophozoite induced Plasmodium berghei in mice (Mus musculus) expressed as change in mean survival time after a single dose of 40 mg/kg (subcutaneously); conditions: route subcutaneous

| SMILES | Cures [1] | Delta MST [2] [days] | Cures [3] | Delta MST [4] [days] | Cures [5] | Delta MST [6] [days] | Delta MST [7] [days] | Delta MST [8] [days] | Cures [9] | Cures [10] | Cures [11] | Cures [12] | Deaths [13] | Deaths [14] | Cures [15] | Delta MST [16] [days] | Delta MST [17] [days] | Cures [18] | Cures [19] | Delta MST [20] [days] |
| --- | --- | --- | --- | --- | --- | --- | --- | --- | --- | --- | --- | --- | --- | --- | --- | --- | --- | --- | --- | --- |
| CCC(C)c1cc(Nc2ccnc3cc(Cl)ccc23)cc(CN(CC)CC)c1O (stereo not given) | 5 | 40.2 | 2 | 29.4 | 5 | 9.8 | 27.7 | 18 | 1 | 2 | – | – | – | – | – | – | – | – | – | – |
| CCN(CC)Cc1cc(Nc2ccnc3cc(Cl)ccc23)ccc1O.Cl | 5 | – | – | – | 5 | – | 11.9 | 8.3 | – | – | 5 | 2 | – | – | – | – | – | – | – | – |
| CCN(CC)Cc1cc(Nc2cc[n+]([O-])c3cc(Cl)ccc23)cc(Cc2ccccc2)c1O | – | 5.4 | – | 4.2 | – | – | 2 | 0.4 | – | – | – | – | 14 | 14 | – | – | – | – | – | – |
| CCN(CC)Cc1cc(Nc2cc[n+]([O-])c3cc(Cl)ccc23)cc(C)c1O | – | 13 | 2 | 11.5 | 5 | 1.4 | 14.3 | 7.6 | 3 | 1 | – | – | – | – | 3 | 19 | – | – | – | – |
| CCN(CC)Cc1cc(Nc2cc[n+]([O-])c3cc(Cl)ccc23)cc(C(C)(C)C)c1O | – | 4.1 | – | 2.9 | – | 3.7 | 1.7 | 0.1 | – | – | – | – | – | – | – | 6.7 | 6.1 | – | – | – |
| CCN(CC)Cc1cc(Nc2cc[n+]([O-])c3cc(Cl)ccc23)cc(C2CCCCC2)c1O | – | 22.4 | – | 8.5 | 5 | – | 3.9 | 0.5 | 3 | – | – | – | – | – | 4 | 24.9 | – | – | – | – |
| CCc1cc(Nc2cc[n+]([O-])c3cc(Cl)ccc23)cc(CN(CC)CC)c1O | – | 13.4 | 1 | 10.9 | 4 | 3.7 | 13.2 | 5.5 | 2 | 3 | – | – | – | – | 3 | 13.4 | 1.4 | – | – | – |
| CCN(CC)Cc1cc(Nc2ccnc3cc(Cl)ccc23)c2c(c1O)CCCC2 | – | 15.1 | 2 | 14.8 | 3 | 6.8 | 12.8 | 12.6 | 2 | 2 | – | – | – | – | 3 | 28.3 | – | – | – | – |
| CCN(CC)Cc1cc(Nc2ccnc3cc(Cl)ccc23)cc(C)c1O | – | 20.7 | 1 | 13.7 | 5 | 7 | 13 | 10.4 | 4 | 4 | – | – | – | – | 3 | 17.2 | – | – | – | – |
| CCN(CC)Cc1cc(Nc2ccnc3cc(Cl)ccc23)cc(C(C)C)c1O | 5 | – | 3 | 25.4 | 5 | 11.1 | 27.9 | 18.1 | – | 4 | 5 | – | – | – | – | – | – | – | – | – |
| CC(C)(C)NCc1cc(Nc2ccnc3cc(Cl)ccc23)cc(-c2ccc(Cl)cc2)c1O [TEBUQUINE] | – | 14.9 | 4 | 14.9 | – | – | 19.9 | 14.9 | 2 | 3 | – | – | – | – | 1 | 16.4 | 17.1 | 3 | – | – |
| CCN(CC)Cc1cc(Nc2ccnc3cc(Cl)ccc23)cc(C(C)(C)C)c1O | – | 1.9 | – | 1.7 | – | – | 0.5 | 0.1 | – | – | – | – | – | – | – | 5.9 | 6.3 | – | – | – |
| CCC(C)c1cc(Nc2cc[n+]([O-])c3cc(Cl)ccc23)cc(CN(CC)CC)c1O (stereo not given) | – | 30 | – | 21.9 | 5 | 4.6 | 20.9 | 12.6 | 2 | – | – | – | – | – | 3 | 39.7 | – | – | – | – |
| CCN(CC)Cc1cc(Nc2cc[n+]([O-])c3cc(Cl)ccc23)cc(C(C)C)c1O | – | 21.7 | 1 | 15.5 | – | 3 | 15.5 | 11.8 | 1 | 1 | – | – | – | – | 1 | 29.7 | 23.7 | – | 4 | – |
| CCN(CC)Cc1cc(Nc2ccnc3cc(Cl)ccc23)cc(Cc2ccccc2)c1O | – | 3.7 | – | 3.4 | – | – | 1.7 | 0.2 | – | – | – | – | – | – | – | 7.8 | 7.9 | – | – | – |
| CCN(CC)Cc1cc(Nc2ccnc3cc(Cl)ccc23)cc(Sc2ccc(Cl)cc2)c1O | – | 10.1 | – | 8.8 | – | – | 7.3 | 3 | – | – | – | – | – | – | – | – | 13.1 | – | – | – |
| CCN(CC)Cc1cc(Nc2ccnc3cc(Cl)ccc23)cc(C2CCCCC2)c1O | 5 | – | – | 10.6 | 5 | – | 5.7 | 0.5 | – | 2 | 5 | – | – | – | – | – | – | – | – | – |
| CCc1cc(Nc2ccnc3cc(Cl)ccc23)cc(CN(CC)CC)c1O | – | 14.4 | 1 | 20.7 | – | 6.1 | – | 12.1 | 4 | 2 | – | – | – | – | 4 | 34.4 | 27.4 | – | 4 | 12.4 |
| CCN(CC)Cc1cc(Nc2cc[n+]([O-])c3cc(Cl)ccc23)cc(Sc2ccc(Cl)cc2)c1O | – | 7.6 | – | 3.4 | – | – | 4.1 | 0.5 | – | – | – | – | – | – | – | 9 | 14.4 | – | – | – |
